The target in this experiment is T1, Enterobacter soli LF7 MarR_Es (Enterobacter soli, UniProt A0AAW8H3I9, A146S).
T1 sequence (A0AAW8H3I9 1-157 A146S): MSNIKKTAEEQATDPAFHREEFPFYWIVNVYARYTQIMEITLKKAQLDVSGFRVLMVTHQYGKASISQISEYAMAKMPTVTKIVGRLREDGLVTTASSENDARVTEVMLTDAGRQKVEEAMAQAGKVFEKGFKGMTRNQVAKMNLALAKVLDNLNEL
As to the kind of experiment: ITC IAA binding to MarR_Es. To be noted: 25 °C, IacR, read-out: KD1.

Experimental: All ITC measurements were performed at 25 °C using an Auto-ITC200 microcalorimeter (MicroCal/GE Healthcare). The buffer employed was 20 mM HEPES, pH 7.4, 50 mM NaCl and 0.5% dimethly sulfoxide (DMSO) for protein/ligand binding and 20 mM HEPES, pH 7.4 and 300 mM NaCl for DNA/protein binding experiments. For ligand binding experiments, the calorimetry cell (volume 200 ml) was loaded with MarR wild-type, mutant or homologue protein at a concentration of 50 μM. The syringe was loaded with a ligand concentration of 0.5 or 2 mM. […] A typical injection protocol included a single 0.2 μl first injection followed by 20 1.5 μl injections of the syringe sample into the calorimetry cell. The spacing between injections was kept at 180 s and the reference power at 8 μcal s^−1. The data were analysed using Origin for ITC version 7.0 software supplied by the manufacturer and fit well to a one-site binding model. Two independent ITC measurements were performed for each condition.

In the case of `O=C(O)Cc1c[nH]c2ccccc12` [IAA, indole-3-acetic acid], the Kd amounted to 2910 ± 96 nM.

The values above are taken from article PMC9613470, “Diverse MarR bacterial regulators of auxin catabolism in the plant microbiome” (Nature Microbiology, 2022).
